Laboratory results published in patent US9849140B2, “Topical compositions comprising bimatoprost and methods for stimulating hair growth therewith” (Allergan, Inc., priority 2009, dated 2017).

Tests used:
[1] = tested on: men with mild to moderate androgenic alopecia (AGA); assay: Phase 2 multicenter trial, safety (treatment-related adverse events, clinical laboratory, vital signs, ECGs, physical examinations); assay type: in vivo, human
Procedure: (§1) In a phase 2 multicenter trial, men 18-49 years of age with mild to moderate androgenic alopecia (AGA) were randomized in a 1:1:1:1:1 ratio to receive in a double-blind manner bimatoprost (BIM) 0.3%, 0.1%, 0.03%, or vehicle applied once daily, or open label over-the-counter minoxidil 5% solution (MIN) applied twice daily to the vertex area of the scalp for 6 months. Subjects were evaluated every 2 months during treatment and at 2 months after completing treatment. The BIM formulations used in this study were as described in Table 3 above.
Safety measures included adverse event monitoring, local tolerability assessment, clinical laboratory testing, vital signs, 12-lead electrocardiograms (ECGs), and physical examinations.
Percent changes from baseline in TAHC, TAHW, and TAHD were analyzed using the Wilcoxon rank-sum test. Frequency distributions of SSA, IGA, and GPR scores were analyzed using a Cochran-Mantel-Haenszel test stratified for age group (18-34 vs 35-49 years), and missing data were imputed to month 6 using a last-observation-carried-forward approach. Safety measures were evaluated in all subjects who received study medication; among-group and pairwise comparisons of the incidence of adverse events were performed using a chi-square or Fisher's exact test

[2] = tested on: men with mild to moderate androgenic alopecia (AGA); assay: Phase 2 multicenter trial, scalp hair growth efficacy (DIA: TAHC, TAHW, TAHD; SSA, IGA, GPR); assay type: in vivo, human
Procedure: as §1
The following assessments were made with digital image analysis (DIA; macrophotographs of a prespecified 1-cm^2 circular area at the anterior leading edge of the vertex thinning area of the scalp identified by microdot tattoo) using customized validated software: Target Area Hair Count (TAHC) measured in terminal hairs/cm^2; Target Area Hair Width (TAHW) measured in mm/cm^2; and, Target Area Hair Darkness (TAHD) measured in intensity units;
Co-primary efficacy endpoints measured included the change from baseline in TAHC and the SSA of change in scalp hair growth. Secondary efficacy endpoints included changes from baseline in TAHW and TAHD, and IGA/GPR of changes in scalp hair growth. […]

CCNC(=O)CCC/C=C\C[C@@H]1[C@@H](/C=C/[C@@H](O)CCc2ccccc2)[C@H](O)C[C@@H]1O [bimatoprost, cyclopentane N-ethyl heptanamide-5-cis-2-(3α-hydroxy-5-phenyl-1-trans-pentenyl)-3,5-dihy-droxy, [1α,2β,3α,5α]]
incidence of treatment-related adverse events, in words ([1]; compared with vehicle and minoxidil): slightly higher with bimatoprost compared with vehicle, but lower than the rate with minoxidil | changes in clinical laboratory parameters, vital signs, ECGs, or physical examinations, in words ([1]; human, in vivo): no clinically meaningful or dose-dependent changes | safety and tolerability profile, in words ([1]; human, in vivo): consistent with that of an established topical treatment for scalp hair growth | distribution of SSA (Subject Self Assessment) scores versus vehicle, in words ([2]; month 6): did not differ | changes in TAHC and TAHW versus vehicle, in words ([2]; two months after stopping treatment): no longer significantly different from vehicle
